Source: patent publication US20230364079A1, “COMPOUND AS BRAIN-PERMEABLE BTK OR HER2 INHIBITOR, PREPARATION METHOD THEREFOR, AND USE THEREOF” (CHENGDU HYPERWAY PHARMACEUTICALS CO., LTD., priority 2020, published 2023)
pIC50: −log10 of the molar value. Structures can show the parent of a compound that is named as a salt. Where two headings read alike, the source gives them in different places.

What was measured:
[1] = target: BTK wild-type kinase (Homo sapiens (Human), UniProt Q06187); assay: BTK kinase activity inhibition test in vitro (Caliper EZ Reader); format: biochemical
Summary of the method: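 Compound (10 mM DMSO stock) preincubated with kinase 10 min at room temperature, then ATP plus kinase substrate 2 added, 10 min reaction at room temperature before stop. Substrate conversion read by Caliper mobility shift; inhibition normalised to no-enzyme and no-compound controls, IC50 by variable-slope log(inhibitor) fit.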

[2] = Liver microsome metabolic stability test, human; format: in vitro ADME; details: for half-life: liver microsomes, 0.5 mg/mL protein, read-out: T½
Description: (§1) 1: To the sample wells of T0, T5, T10, T20, T30, T60 and NCF60, 10 µL of the test or reference working solution and 80 µL of microsome working solution (hepatic microsome with a protein concentration of 0.5 mg/mL) were added, and to Blank60 well, only the microsome working solution was added. Then samples of the Blank60, T5, T10, T20, T30 and T60 other than T0 and NCF60 were placed in a 37° C. water bath and pre-incubated for about 10 min.
(§2) 2: To the T0 sample well, 300 µL of stop solution (containing 200 ng/mL tolbutamide and 200 ng/mL labetalol in acetonitrile solution) was added first, followed by 10 µL of NADPH regeneration system working solution.
(§3) 3: After the pre-incubation of Blank60, T5, T10, T20, T30 and T60 incubation plates, 10 µL of NADPH regeneration system working solution was added to each sample well to start the reaction, and 10 µL of 100 mM potassium phosphate buffer was added to the NCF60 sample well.
(§4) 4: After incubation for an appropriate time (such as 5, 10, 20, 30 and 60 min), to each test sample well and control well of the Blank60, T5, T10, T20, T30, T60 and NCF60 plates, 300 µL of stop solution was added to terminate the reaction.
(§5) 5: All sample plates were shaken to mix well and centrifuged at 4000 rpm for 20 min, and 100 µL of the supernatant of the test sample or control sample was taken and diluted with 300 µL of pure water for LC-MS/MS analysis.
(§6) 6: Data analysis: T½ and CLint(mic) (µL/min/mg) values were calculated according to the first-order elimination kinetics. The first-order elimination kinetics equation was: […]

[3] = Pharmacokinetic test, oral, SD rats; format: in vivo; details: oral 10 mg/kg, plasma; for AUC(0-inf) / Cmax / half-life: rat; for Cmax: read-out: Cmax; for half-life: read-out: T½ (converted)
Description: Each test compound was administered orally (10 mg/kg, 3 rats in each group) to SD rats for pharmacokinetic study. […] Animals were fasted overnight before oral administration, and fed again after 4 h of administration. […] At each collection time point, 3 whole blood samples were collected at a the collection volume of about 0.2-0.3 mL. […] The collected plasma was stored at -20° C. before analysis. 20 µL of plasma sample was added into a 1.6 mL 96-well deep-well plate, added with 200 µL of working internal standard solution (the same volume of vehicle was added to the blank instead of internal standard), vortexed for 1 min, and centrifuged at 5800 rpm for 10 min. 100 µL of the supernatant was added to a 96-well injection plate for LC-MS/MS analysis.

[4] = Liver microsome metabolic stability test, rat; format: in vitro ADME; details: for half-life: liver microsomes, 0.5 mg/mL protein, read-out: T½
Description: as §1, §2, §3, §4, §5, §6

[5] = system: TMD8 mouse subcutaneous xenograft tumor; assay: TMD8 pharmacodynamic model test (mouse subcutaneous xenograft tumor); format: in vivo; details: same dose of 10 mg/kg, FIG. 1
Description: Test Example 7: TMD8 Pharmacodynamic Model Test
Human diffuse large B-cell lymphoma TMD8 cells were monolayer-cultured in vitro in RPMI1640 medium with 10% fetal bovine serum, 100 U/mL penicillin and 100 µg/mL streptomycin, in a 37° C., 5% CO2 incubator. Routine digestion with trypsin-EDTA was performed twice a week for passaging. When the cell density was 80%-90% and the number reached the requirement, cells were harvested, counted and inoculated. 0.2 ml (1×10^7 cells) of TMD8 cells (added with matrigel at a volume ratio of 1:1) were subcutaneously inoculated on the right back of each mouse. The mice were administered in groups when the average tumor volume reached about 137 mm^3. Tumor diameters were measured twice a week with vernier calipers. The tumor volume was calculated by the formula V = 0.5 a × b^2, where a and b represent the long and short diameters of the tumor, respectively.

[6] = target: BTK mutation-type C481S kinase (Homo sapiens (Human), UniProt Q06187, C481S); assay: BTK-C481S kinase activity inhibition test in vitro (Caliper EZ Reader); format: biochemical
Description: In the tests on the activity of inhibiting BTK and HER2 kinase in vitro in the examples of the present disclosure, powder of the compound was dissolved in 100% DMSO to prepare a 10 mM stock solution and stored at-20° C. in the dark. […] In addition, the compounds were subjected to experiments such as liver microsome metabolic stability, rat PK, rat brain penetration rate, and drug efficacy model in the examples of the present disclosure.
Compound powders were dissolved in 100% DMSO to make 10 mM stock solutions, which were stored at -20° C. in the dark.
2: Kinase Reaction Process
(1) Preparation of 1 × Kinase buffer.
(5) After centrifugation at 1000 rpm for 30 seconds, the reaction plate was shaken to mix well and incubated at room temperature for 10 min.
(6) A 5/3-fold final concentration of a mixed solution of ATP and Kinase substrate 2 was prepared with 1 × Kinase buffer.
(7) 15 µL of the mixed solution of ATP and substrate with 5/3-fold final concentration was added to start the reaction.
(8) The 384-well plate was centrifuged at 1000 rpm for 30 seconds, shaken to mix well, and incubated at room temperature for 10 min.
(9) 30 µL of a stop solution was added to stop the kinase reaction, and after centrifugation at 1000 rpm for 30 seconds, the plate was shaken to mix well;
(10) The conversion rate was read with Caliper EZ Reader.
where Conversion%_sample indicates the conversion rate reading of the sample; Conversion%_min is the average reading of the negative control wells, representing the conversion rate reading of the wells without enzyme activity; Conversion%_max is the average reading of the ratio of the positive control wells, representing the conversion rate reading of the wells without compound inhibition.
Dose-Response Curve Fitting
With the log value of the concentration as the X-axis, and the percentage inhibition rate as the Y-axis, the dose-effect curve was fitted using the log(inhibitor) vs. response-Variable slope of the analysis software GraphPad Prism 5, so as to determine the IC50 value of each compound on the enzyme activity.
The calculation formula was: […]

[7] = Blood-brain barrier permeability test, SD rats (plasma, cerebrospinal fluid, brain tissue); format: in vivo; details: oral single dose 10 mg/kg
Description: Test Example 6: Blood-brain Barrier Permeability Test
Each test compound was administered orally at a single dose of 10 mg/kg to SD rats for pharmacokinetic study. Each group included 9 rats. The test compound was dissolved in 5% DMSO+10% solutol+85% saline, vortexed for 1-2 min, and ultrasonicated for 5-10 min to prepare into a colorless, transparent and clear administration solution. Animals were fasted overnight before administration. 1 h, 2 h, and 4 h after administration, three SD rats were selected from each group to take about 0.2-0.3 mL of blood through their orbit. The blood sample was placed on ice once collected, and centrifuged to separate the plasma within 15 min (centrifugation conditions: 8000 rpm, 1 min, room temperature). The collected plasma was stored at -20° C. before analysis. Immediately after blood collection, the cerebrospinal fluid and brain tissue were collected. The cerebrospinal fluid was draw out by dural puncture with a micro-sampler syringe under direct vision. Namely, about 100 µl of cerebrospinal fluid was collected with a 100 µl micro sample syringe from the rat that was anesthetized by chloral hydrate, with the head-fixed, the back hair-cut off, a transverse incision (2 cm) made at the line connecting the roots of the two ears, and the muscle layer of the neck and skull base bluntly scraped to expose the foramen magnum. The cerebrospinal fluid was stored at -20° C. before analysis. The rat then was sacrificed immediately, with its head cut off. The dissected brain tissue, with the surface capillaries peeled off, was weighed, added with 3 times the amount of cold saline, homogenized by a homogenizer for 1 min, and stored at -20° C. before analysis. 20 µL of plasma sample and brain homogenate sample was respectively added into 200 µL of working internal standard solution (the same volume of vehicle was added to the blank instead of internal standard), vortexed for 1 min, and centrifuged at 13500 rpm for 10 min. 100 µL of the supernatant was taken and analyzed by LC-MS/MS. 20 µL of the cerebrospinal fluid was added into 60 µL of working internal standard solution (the same volume of vehicle, instead of internal standard, was added to the blank), vortexed for 1 min, and centrifuged at 13500 rpm for 10 min. 50 µL of the supernatant was taken and analyzed by LC-MS/MS.

[8] = system: DOHH-2-luc tumor cells in the mouse brain; assay: DOHH-2-Luc intracerebral tumor drug efficacy model test; format: in vivo; details: DOHH-2-Luc intracerebral model, same dose, FIG. 4
Description: Test Example 8: DOHH-2-Luc Intracerebral Tumor Drug Efficacy Model Test
DOHH-2-luc tumor cells were cultured in vitro with RPMI 1640 medium containing 10% fetal bovine serum and 500 ng/mL puromycin in a 37° C., 5% CO2 incubator. […] Tumor cells in logarithmic growth phase were used for inoculation of tumors in vivo.
2. Inoculation of Tumor Cell and Grouping
After the animal was anesthetized by intramuscular injection of Zoletil, it was fixed on the operating table in a prone position. The skin on the top of the head was disinfected with iodine and 75% alcohol respectively, and the skin was cut about 0.5 cm along the midline of the head to expose the coronal and sagittal lines. Being located about 0.5-1.0 mm above the coronal line and about 2 mm to the right of the sagittal line by using a brain locator, a hole was drilled with a 1 mL syringe needle. The micro-injector was inserted vertically to a depth of 3 mm at the location, slowly (about 1 min) injected with 3 × 10^5 DOHH-2-luc tumor cells /2 µL suspension and kept for 1 min. After pulling out the needle, the needle hole was quickly sealed with bone wax, and the wound was sutured with a stapler. About the 7th day after tumor inoculation, the animals were randomly divided into 5 groups according to the body weight of the animals and the optical signal intensity of the tumor site, with 5 animals in each group.
The mice were imaged 1-2 times a week according to their state using the small animal in vivo imaging system IVIS Lumina III (Perkin Elmer). The bioluminescence imaging (BLI, unit: photons/s) signal intensity at the tumor cell inoculation site of mouse was monitored as the main indicator for evaluating tumor growth and drug efficacy. The specific operation is as follows:
The mice were intraperitoneally injected with D-luciferin (15 mg/mL, 5 µL/g according to the body weight of the experimental animal), and then inhaled anesthetized with 1%-2% isoflurane. 10 min after the injection of D-luciferin, the animals were imaged with IVIS Lumina III. The data were analyzed and processed using Living Image software (Perkin Elmer), and the optical signal intensity in ROI (regions of interest) of each animal was calculated.

[9] = system: relapsed/refractory central nervous system lymphoma; details: cited from earlier work; for ORR / PFS: patients

Sequence of BTK mutation-type C481S kinase (Q06187 whole entry C481S): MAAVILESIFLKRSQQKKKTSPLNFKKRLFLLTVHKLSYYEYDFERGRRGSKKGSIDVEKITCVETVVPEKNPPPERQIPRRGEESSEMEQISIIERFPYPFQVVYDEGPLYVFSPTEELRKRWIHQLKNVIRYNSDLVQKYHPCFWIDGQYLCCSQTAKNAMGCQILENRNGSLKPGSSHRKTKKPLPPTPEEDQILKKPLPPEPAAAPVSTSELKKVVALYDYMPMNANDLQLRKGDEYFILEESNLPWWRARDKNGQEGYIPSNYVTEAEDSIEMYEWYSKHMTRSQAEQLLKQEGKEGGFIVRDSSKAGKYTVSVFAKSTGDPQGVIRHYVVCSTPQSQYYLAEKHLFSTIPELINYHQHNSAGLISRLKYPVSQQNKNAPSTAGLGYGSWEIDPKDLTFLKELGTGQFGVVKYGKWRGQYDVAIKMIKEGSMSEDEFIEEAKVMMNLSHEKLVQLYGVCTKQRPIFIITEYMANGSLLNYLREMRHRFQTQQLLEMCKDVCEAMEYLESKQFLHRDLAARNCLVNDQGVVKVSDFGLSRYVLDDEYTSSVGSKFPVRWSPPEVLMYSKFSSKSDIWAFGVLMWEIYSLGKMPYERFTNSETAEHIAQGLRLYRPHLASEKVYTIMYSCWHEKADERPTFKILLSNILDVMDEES
Sequence of BTK wild-type kinase (Q06187 whole entry): as the sequence (Q06187 whole entry C481S) above, with S481C counted along it

COc1cccc(Oc2ccc(-c3nc(C4CCC(CO)OC4)n4ccnc(N)c34)cc2)c1C#N (single isomer, unassigned) [Compound 89-P1]
pIC50 [1]: > 8.30
%Remaining (60 min) [2]: 100.4%
half-life [2]: > 2.42 h
Cl [3]: 20.53 mL/min/kg
AUC(0-inf) [3]: 8120 ng·h/mL
Cmax [3]: 2980 ng/mL
half-life [3]: 1.16 h
%Remaining (60 min) [4]: 61.0%
half-life [4]: 1.47 h
inhibitory effect against the tumor compared with ARQ-531 and ibrutinib [5]: significantly better inhibitory effect against the tumor
pIC50 [6]: > 8.30

Nc1nccn2c(C3CCC(CO)OC3)nc(-c3ccc(Cc4ccccc4)cc3)c12 (stereo not drawn) [Compound 106]
pIC50 [1]: > 8.30
%Remaining (60 min) [2]: 66.3%
half-life [2]: 1.76 h
Cl [3]: 64.75 mL/min/kg
AUC(0-inf) [3]: 2580 ng·h/mL
Cmax [3]: 1220 ng/mL
half-life [3]: 1.87 h
%Remaining (60 min) [4]: 39.1%
half-life [4]: 0.782 h
pIC50 [6]: > 8.30

Nc1nccn2c(C3CCC(CO)OC3)nc(-c3ccc(C(F)(F)c4ccccc4)cc3)c12 (stereo not drawn) [Compound 111]
pIC50 [1]: > 8.30
%Remaining (60 min) [2]: 73.5%
half-life [2]: 2.12 h
Cl [3]: 17.83 mL/min/kg
AUC(0-inf) [3]: 9630 ng·h/mL
Cmax [3]: 1780 ng/mL
half-life [3]: 3.15 h
%Remaining (60 min) [4]: 46%
half-life [4]: 0.887 h
pIC50 [6]: > 8.30

Nc1nccn2c(C34CCC(CO)(CC3)OC4)nc(-c3ccc(C(F)(F)c4cccc(F)c4Cl)cc3)c12 [Compound 146]
Brain tissue/plasma ([7]; 1 h): 78%
Cerebrospinal fluid/plasma ([7]; 1 h): 7.2%
Drug concentration in brain tissue ([7]; 1 h): 296 ng/g
Drug concentration in cerebrospinal fluid ([7]; 1 h): 27.4 ng/mL
Plasma drug concentration ([7]; 1 h): 380 ng/mL
Brain tissue/plasma ([7]; 4 h): 110%
Cerebrospinal fluid/plasma ([7]; 4 h): 9.2%
Drug concentration in brain tissue ([7]; 4 h): 410 ng/g
Drug concentration in cerebrospinal fluid ([7]; 4 h): 34.3 ng/mL
Plasma drug concentration ([7]; 4 h): 373 ng/mL

CC#CC(=O)N1CC[C@@H](n2c(=O)n(-c3ccc(Oc4ccccc4)cc3)c3c(N)ncnc32)C1 [Tirabrutinib, reference compound]
%Remaining (60 min) [2]: 66.3%
half-life [2]: 1.77 h
tumor size in the brain by fluorescence image [8]: large red areas
Cl [3]: 189.92 mL/min/kg
AUC(0-inf) [3]: 965 ng·h/mL
Cmax [3]: 920 ng/mL
half-life [3]: 0.33 h
%Remaining (60 min) [4]: 37.0%
half-life [4]: 0.702 h
ORR ([9]; 320 mg QD): 60%
PFS ([9]; 320 mg QD): 2.1 months
ORR ([9]; 480 mg QD (fasting condition)): 52.9%
PFS ([9]; 480 mg QD (fasting condition)): 5.8 months
ORR ([9]; 480 mg QD): 100%
PFS ([9]; 480 mg QD): 11.1 months

CC#CC(=O)N1CC[C@@H](n2c(=O)n(-c3ccc(Oc4ccccc4)cc3)c3c(N)ncnc32)C1 [Velexbru, Tirabrutinib hydrochloride]
patients who achieved effective remission ([9]; relapsed or refractory PCNSL patients): 52.9%
